According to patent publication US11560391B2, “Sulfonylurea compounds as inhibitors of interleukin-1 activity” (Genentech, Inc., priority 2018, dated 2023):
Like-named read-outs stand apart in the source and are kept apart here.

How the values were obtained:
NLRP3 inflammasome = biological target: T1, NLRP3 inflammasome (Homo sapiens, UniProt Q96P20); assay: NLRP3 inflammasome activation assay in LPS-primed, nigericin-stimulated PBMCs, IL-1β release; type: cell-based; settings: 10 μM nigericin
T1 construct: freshly isolated from human peripheral blood from healthy donors; StemCells Technologies; host or cells: primary human PBMCs
T1 sequence (Q96P20 whole entry): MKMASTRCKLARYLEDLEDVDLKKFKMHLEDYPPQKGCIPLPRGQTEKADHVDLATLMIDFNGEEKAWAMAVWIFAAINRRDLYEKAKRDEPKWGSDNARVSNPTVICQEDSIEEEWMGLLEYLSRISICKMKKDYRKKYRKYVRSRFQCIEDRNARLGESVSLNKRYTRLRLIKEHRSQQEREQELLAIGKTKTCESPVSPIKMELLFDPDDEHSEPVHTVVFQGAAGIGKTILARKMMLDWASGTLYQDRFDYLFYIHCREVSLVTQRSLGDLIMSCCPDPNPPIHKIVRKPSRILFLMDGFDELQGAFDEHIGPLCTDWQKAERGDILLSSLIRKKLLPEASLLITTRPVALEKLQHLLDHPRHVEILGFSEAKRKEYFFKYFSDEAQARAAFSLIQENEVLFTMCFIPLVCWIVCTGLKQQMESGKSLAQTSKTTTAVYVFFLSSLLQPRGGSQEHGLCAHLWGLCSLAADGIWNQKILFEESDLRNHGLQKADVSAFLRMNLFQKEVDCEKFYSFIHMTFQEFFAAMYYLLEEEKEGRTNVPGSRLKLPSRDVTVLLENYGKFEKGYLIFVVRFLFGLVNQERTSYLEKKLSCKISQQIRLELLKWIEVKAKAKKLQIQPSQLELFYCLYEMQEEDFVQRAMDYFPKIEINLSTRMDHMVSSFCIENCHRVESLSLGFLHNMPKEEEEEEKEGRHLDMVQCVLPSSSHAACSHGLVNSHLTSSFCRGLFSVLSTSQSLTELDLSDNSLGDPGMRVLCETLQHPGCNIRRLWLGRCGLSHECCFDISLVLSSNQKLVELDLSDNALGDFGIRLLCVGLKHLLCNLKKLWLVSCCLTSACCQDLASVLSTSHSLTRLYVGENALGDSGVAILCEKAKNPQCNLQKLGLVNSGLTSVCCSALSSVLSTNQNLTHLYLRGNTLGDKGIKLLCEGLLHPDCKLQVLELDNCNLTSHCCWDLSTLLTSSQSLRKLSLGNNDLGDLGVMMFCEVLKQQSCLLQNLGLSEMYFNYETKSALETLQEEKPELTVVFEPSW
Summary of the method: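 Fresh or cryopreserved human PBMCs primed with 100 ng/mL LPS for 3 h, pre-incubated 30 min with compound (0.00017-10 uM, or 2-fold 20-point series from 40 μM), then stimulated with 10 μM nigericin for 1.5 h at 37 °C. Supernatant IL-1β measured by ELISA or by HTRF (665/620 ratio).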

THP-1 ASC-GFP cells = assay: THP-1 ASC-GFP speck assay (NLRP3 inflammasome activation, nigericin); type: cell-based; settings: THP1-ASC-GFP; PMA-differentiated, LPS primed, 10 μM nigericin
Protocol: THP-1 ASC-GFP cell line was purchased from Invivogen, San Diego, for infammasome activation assay. THP-1 ASC-GFP cells stably express a 37.6 kDa ASC::GFP fusion protein that enables monitoring of spec formation by microscopy after activation of NLRP3 dependent inflammasome pathway. Cells were maintained at a density of 600,000 cells/mL in growth media consisting of RPMI 1640, 2 mM L-glutamine, 25 mM HEPES and 10% heat inactivated fetal bovine serum at 37° C. and 5% CO2. Cells were passaged every 3-4 days and used for assays for up to 20 passages.
THP-1 ASC-GFP cells were collected by centrifuging cells at 800 RPM for 5 minutes. Cell culture supernatant was removed and cells were re-suspended in fresh media at density of 1×10^6 cells/mL in assay media consisting of RPMI 1640, 2 mM L-glutamine, 25 mM HEPES and 10% heat inactivated fetal bovine serum. Phorbol 12-myristate 13-acetate (PMA) (Invivogen,tlrl-pma) was added to the cell suspension at a final concentration of 500 ng/ml and mixed thoroughly. 40,000 cells were added per well of a 384 well plate and differentiated into macrophages overnight at 37° C. and 5% CO2. Cells were primed with 1 μg/mL of lipopolysaccharide (Invivogen Ultrapure lipopolysaccharide from E. coli, tlrl-3pelps) in assay media for 3 hours at 37° C. and 5% CO2. After priming, media was removed and THP-1 ASC-GFP cells were preincubated with serially diluted test compounds with starting concentration of 40 μM followed by 2-fold dilution for a 20-point curve or vehicle (DMSO) for 30 min in assay media at 37° C. and 5% CO2. Cells were then stimulated with 10 μM nigericin (Invivogen, tlrl-nig-5) for 90 min at 37° C. and 5% CO2 to activate NLRP3 dependent inflammasome pathway and spec formation. After stimulation, cells were fixed with 4.8% paraformaldehyde (Electron Microscopy Sciences #15710-S) and incubated at room temperature for 15 min. Cells were then washed 3-times with 100 μL of phosphate buffered saline and permeabilized in the presence of premeablization/block buffer for 20 min at room temperature. Cells were then washed 3-times with 100 μL phosphate buffered saline and incubated for 1 hr at room temperature in the presence of hoechst. After staining with Hoechst, cells were washed 3-times with 100 μL phosphate buffered saline and imaged for ASC spec formation.
THP-1 ASC-GFP cells were imaged in 488 and Hoechst channels. Hoechst channel was used for cell count and 488 channel was used to identify number of GFP ASC specks in imaged fields. Percentage of cells with a spec was calculated by dividing the number of GFP positive spots by total number of cells.

PBMCs = assay: CTG (CellTiter-Glo) viability assay of compound-treated LPS and nigericin stimulated PBMCs; type: cell-based, human; settings: Homo sapiens, PBMC
Protocol: (§1) Human peripheral blood mononuclear cells (PBMCs), consisting of lymphocytes (T, B and NK cells), monocytes and dendritic cells, are freshly isolated from human peripheral blood from healthy donors. Cells are obtained through an IRB approved donor program by iXCells Biotechnologies where all the donors are tested for bacterial and viral infections. Cells are purified from peripheral blood using ficoll gradient centrifugation.
(§2) Fresh or cryopreserved PMBCs are seeded in V-bottom 96-well plate at 0.5-1×10^5 cells per well and incubated overnight at 37° C. with 5% CO2 in RPMI 1640 medium with GlutaMAX supplement, 4.5 g/L D-glucose, 10% Fetal Bovine Serum (FBS), […] Sodium Pyruvate, 1% Penicillin/Streptomycin, 10 mM HEPES and 0.05 mM of […]. Freshly isolated or cryopreserved KCs cells are seeded in flat-bottom 96-well plates at 0.6-1.5×10^5 cells/well and incubated overnight at 37° C., 5% CO2 in RPMI 1640 Medium with GlutaMAX supplement, FBS, 1% Penicillin/Streptomycin and 10 mM HEPES. The following day, the cells are primed with 100 ng/mL of lipopolysaccharides (LPS; Sigma Aldrich) in FBS-free RPMI 1640 for 3 h. After the priming step, the media is removed and PBMCs are pre-incubated with serial concentrations of test compounds (0.00017-10 uM) or vehicle (DMSO) for 30 min in FBS-free media prior to addition of the NLRP3 activator. Cells are then stimulated with 10 μM Nigericin (Sigma Aldrich; InvivoGen) for 1.5 h. Plates were centrifuged at 1,500 rpm for 3 minutes to pellet cells and supernatant was transferred into new plates for subsequent experiments.
Viability of compound treated cells is measured using CellTiter-Glo® assay (Promega, Madison, Wis.) that measures the ATP content of cells which is proportional to the number of live cells within a well. This is a counter-screen to establish that the reduction of IL-1β levels in LPS and nigericin stimulated and compound treated cells is not due to cytotoxicity, but rather through the inhibition of the inflammasome pathway. Compounds inhibiting NRLP3 inflammasome activation ultimately increase the viability of LPS and nigericin stimulated cells by blocking NLRP3 mediated pyroptosis that would otherwise lead to cell lysis.

TNFα = TNFα levels of LPS and nigericin stimulated PBMCs (counter-screen); type: cell-based; settings: Homo sapiens, PBMC, LPS and nigericin stimulated cells; read-out: TNFa pIC50 (converted)
Protocol: as §1, §2
For ELISA assays cells are seeded into 96-well plates. Post study, supernatants are removed and the levels of mature IL-1β, IL18 and TNFα (Quantikine ELISA, R&D systems) are measured in cell conditioned media by ELISA according to manufacturer's instructions.
TNFα levels of LPS and nigericin stimulated cells are measured by HTRF assay (Cisbio, Bedford, Mass.). […] Measuring TNFalpha production also serves as a technical counter-screen to eliminate compounds that interfere with the HTRF reagents. Thus compounds that inhibit both IL-1β and TNFα levels are triaged for either being non-selective for inflammasome or interfering with the HTRF readout.

[1] = PBMC, LPS priming, read-out: PMBC IL-1β IC50
[2] = LPS 100 ng/mL priming, read-out: IL-1B pIC50 (converted)
[3] = LPS and nigericin stimulated cells, read-out: CTG pIC50 (converted)

SMILES	IC50 (NLRP3 inflammasome; [1]) [µM]	IC50 (THP-1 ASC-GFP cells) [µM]	IC50 (NLRP3 inflammasome; [2]) [µM]	IC50 (PBMCs; read-out: PMBC CTG IC50) [µM]	IC50 (TNFα) [µM]	IC50 (PBMCs; [3]) [µM]
COc1cc(C(C)C)c(NC(=O)NS(=O)(=O)c2cnn3c2OCC(C)(C)C3)c(C(C)C)n1 [drawing 414]	–	–	1 to 10	–	> 10	1 to 10
CC(C)NC(=O)NS(=O)(=O)c1cnn2c1OCC(CN)C2 (stereo not drawn)	–	–	> 10	–	> 10	> 10
COc1cc(C(C)C)c(NC(=O)NS(=O)(=O)c2cnn3c2OCC(CNC(C)=O)C3)c(C(C)C)n1 (racemic) [Example 40, N-((3-(N-((2,4-diisopropyl-6-methoxypyridin-3-yl)carbamoyl)sulfamoyl)-6,7-dihydro-5H-pyrazolo[5,1-b][1,3]oxazin-6-yl)methyl)acetamide]	1.5	0.72	–	1.25	–	–
Cc1onc(-c2ccccc2)c1NC(=O)NS(=O)(=O)c1cnn2c1OCCC2 [Example 8, N-((5-methyl-3-phenylisoxazol-4-yl)carbamoyl)-6,7-dihydro-5H-pyrazolo[5,1-b][1,3]oxazine-3-sulfonamide]	> 10	> 20	–	> 10	–	–
COc1cc(C(C)C)c(NC(=O)NS(=O)(=O)c2cnn3c2OCCC3)c(C(C)C)n1 [Example 30, N-((2,4-diisopropyl-6-methoxypyridin-3-yl)carbamoyl)-6,7-dihydro-5H-pyrazolo[5,1-b][1,3]oxazine-3-sulfonamide]	0.85	1.8	–	0.73	–	–
CC(C)c1nn(CC2CC2)c(C(C)C)c1NC(=O)NS(=O)(=O)c1cnn2c1OCCC2 [Example 35, N-((1-(cyclopropylmethyl)-3,5-diisopropyl-1H-pyrazol-4-yl)carbamoyl)-6,7-dihydro-5H-pyrazolo[5,1-b][1,3]oxazine-3-sulfonamide]	0.95	1.4	–	0.12	–	–
CC(C)c1ncc2c(c1NC(=O)NS(=O)(=O)c1cnn3c1OCCC3)CCC2 [drawing 422]	–	–	> 10	–	> 10	> 10
Cc1cc(C(C)C)c(NC(=O)NS(=O)(=O)c2cnn3c2OCCC3)c(C(C)C)n1 [drawing 415]	–	–	1 to 10	–	> 10	1 to 10
CNc1cc(C(C)C)c(NC(=O)NS(=O)(=O)c2cnn3c2OCCC3)c(C(C)C)n1 [drawing 420]	–	–	1 to 10	–	> 10	0.1 to 1
CCOc1cc(C(C)C)c(NC(=O)NS(=O)(=O)c2cnn3c2OCCC3)c(C(C)C)n1 [Example 50, N-((6-ethoxy-2,4-diisopropylpyridin-3-yl)carbamoyl)-6,7-dihydro-5H-pyrazolo[5,1-b][1,3]oxazine-3-sulfonamide]	2.81	4.7	–	1.18	–	–
CC(C)c1cc(C#N)nc(C(C)C)c1NC(=O)NS(=O)(=O)c1cnn2c1OCCC2 [Example 49, N-((6-cyano-2,4-diisopropylpyridin-3-yl)carbamoyl)-6,7-dihydro-5H-pyrazolo[5,1-b][1,3]oxazine-3-sulfonamide]	1.25	2.5	–	0.56	–	–

Continued, in another order:

IC50 (NLRP3 inflammasome; [1]) [µM]	IC50 (THP-1 ASC-GFP cells) [µM]	IC50 (NLRP3 inflammasome; [2]) [µM]	SMILES	IC50 (PBMCs; read-out: PMBC CTG IC50) [µM]	IC50 (TNFα) [µM]	IC50 (PBMCs; [3]) [µM]
3.19	3.7	–	CCn1nc(C(C)C)c(NC(=O)NS(=O)(=O)c2cnn3c2OCCC3)c1C(C)C [Example 34, N-((1-ethyl-3,5-diisopropyl-1H-pyrazol-4-yl)carbamoyl)-6,7-dihydro-5H-pyrazolo[5,1-b][1,3]oxazine-3-sulfonamide]	1.98	–	–
0.37	0.68	–	CN[C@@H]1COc2c(S(=O)(=O)NC(=O)Nc3c(C(C)C)cc(OC)nc3C(C)C)cnn2C1 [Example 41a, (S)—N-((2,4-diisopropyl-6-methoxypyridin-3-yl)carbamoyl)-6-(methylamino)-6,7-dihydro-5H-pyrazolo[5,1-b][1,3]oxazine-3-sulfonamide]	0.013	–	–
1.24	0.4	–	CCn1nc(C(C)C)c(NC(=O)NS(=O)(=O)c2cnn3c2OC[C@@H](OC)C3)c1C(C)C [Example 39a, (S)—N-((1-ethyl-3,5-diisopropyl-1H-pyrazol-4-yl)carbamoyl)-6-methoxy-6,7-dihydro-5H-pyrazolo[5,1-b][1,3]oxazine-3-sulfonamide]	0.97	–	–
0.12	1.1	–	COc1cc(C(C)C)c(NC(=O)NS(=O)(=O)c2cnn3c2OC[C@@H](N2CC(OC)C2)C3)c(C(C)C)n1 [Example 42a, Sodium (S)—N-((2,4-diisopropyl-6-methoxypyridin-3-yl)carbamoyl)-6-(3-methoxyazetidin-1-yl)-6,7-dihydro-5H-pyrazolo[5,1-b][1,3]oxazine-3-sulfonamide]	0.24	–	–
–	–	0.1 to 1	COc1cc(C(C)C)c(NC(=O)NS(=O)(=O)c2cnn3c2OC[C@@H](N(C)C)C3)c(C(C)C)n1 [drawing 419]	–	> 10	0.1 to 1
1.14	2.5	–	CO[C@@H]1COc2c(S(=O)(=O)NC(=O)Nc3c(C(C)C)nn(C)c3C(C)C)cnn2C1 [Example 38a, (S)—N-((3,5-diisopropyl-1-methyl-1H-pyrazol-4-yl)carbamoyl)-6-methoxy-6,7-dihydro-5H-pyrazolo[5,1-b][1,3]oxazine-3-sulfonamide]	0.68	–	–
4.96	4	–	CC(C)c1nn(C(C)C)c(C(C)C)c1NC(=O)NS(=O)(=O)c1cnn2c1OCCC2 [Example 33, N-((1,3,5-triisopropyl-1H-pyrazol-4-yl)carbamoyl)-6,7-dihydro-5H-pyrazolo[5,1-b][1,3]oxazine-3-sulfonamide]	4.51	–	–
